Reference: PMC3117970 (ACS chemical biology, 2011)
Where two headings read alike, the source gives them in different places.

Columns and labels:
human RAD51 = biological target: T1, human RAD51 (Homo sapiens, UniProt Q06609); experiment: D-loop assay for RAD51; format: biochemical; settings: B02 derivatives 50 μM
T1 sequence (Q06609 2-339 limits assumed): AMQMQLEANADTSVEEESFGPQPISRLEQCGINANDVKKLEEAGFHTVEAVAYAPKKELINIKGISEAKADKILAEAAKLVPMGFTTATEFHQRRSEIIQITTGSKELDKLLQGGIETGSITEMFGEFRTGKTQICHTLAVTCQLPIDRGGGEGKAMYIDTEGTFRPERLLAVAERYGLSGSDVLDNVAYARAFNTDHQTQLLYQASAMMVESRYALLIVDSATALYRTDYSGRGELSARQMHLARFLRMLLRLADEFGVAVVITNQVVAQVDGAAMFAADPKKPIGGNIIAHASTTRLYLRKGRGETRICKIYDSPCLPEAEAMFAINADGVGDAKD

RecA = RecA (Escherichia coli, UniProt P0A7G6)
Sequence of RecA (P0A7G6 2-353): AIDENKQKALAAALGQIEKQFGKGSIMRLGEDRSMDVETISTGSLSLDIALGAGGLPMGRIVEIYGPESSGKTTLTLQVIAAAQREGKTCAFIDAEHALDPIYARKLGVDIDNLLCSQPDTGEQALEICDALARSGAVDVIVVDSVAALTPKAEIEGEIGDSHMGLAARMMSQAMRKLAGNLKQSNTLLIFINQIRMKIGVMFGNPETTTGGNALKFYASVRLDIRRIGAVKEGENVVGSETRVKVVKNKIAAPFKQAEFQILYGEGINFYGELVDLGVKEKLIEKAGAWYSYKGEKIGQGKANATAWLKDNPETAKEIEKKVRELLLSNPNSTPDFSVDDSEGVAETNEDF

human RAD54 = biological target: T2, human RAD54 (Homo sapiens, UniProt Q92698); experiment: DNA branch migration assay for RAD54; format: biochemical; settings: concentrations from 0 to 200 μM
T2 sequence (Q92698 1-747): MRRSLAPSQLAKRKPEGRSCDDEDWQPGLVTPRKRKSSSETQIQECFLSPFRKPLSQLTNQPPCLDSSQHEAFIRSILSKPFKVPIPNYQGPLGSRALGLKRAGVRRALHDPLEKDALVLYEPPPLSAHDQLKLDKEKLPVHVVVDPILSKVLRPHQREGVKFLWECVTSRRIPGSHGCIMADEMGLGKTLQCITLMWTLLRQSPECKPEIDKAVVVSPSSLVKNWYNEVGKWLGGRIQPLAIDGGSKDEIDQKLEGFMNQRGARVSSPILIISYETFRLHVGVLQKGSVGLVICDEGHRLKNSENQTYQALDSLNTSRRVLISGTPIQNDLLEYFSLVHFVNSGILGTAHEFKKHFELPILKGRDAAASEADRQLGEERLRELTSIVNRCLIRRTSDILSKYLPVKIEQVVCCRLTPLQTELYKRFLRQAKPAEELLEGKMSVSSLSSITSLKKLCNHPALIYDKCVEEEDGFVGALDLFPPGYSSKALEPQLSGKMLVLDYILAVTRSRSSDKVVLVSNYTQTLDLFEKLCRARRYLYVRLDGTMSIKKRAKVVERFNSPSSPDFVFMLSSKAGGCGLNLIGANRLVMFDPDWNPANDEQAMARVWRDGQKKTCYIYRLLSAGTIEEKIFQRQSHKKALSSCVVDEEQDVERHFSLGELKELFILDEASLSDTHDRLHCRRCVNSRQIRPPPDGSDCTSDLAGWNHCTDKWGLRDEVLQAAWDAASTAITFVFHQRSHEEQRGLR

Compound	inhibitory effect on DNA strand exchange activity of RAD51 (D-loop assay) (human RAD51)	inhibition of RecA DNA strand exchange (RecA; concentrations up to 100 μM)	other results
CCn1c(C=Cc2cccnc2)nc2ccccc2c1=O [B02-3a]	retain the inhibitory effect	do not inhibit	
Cc1cccc(-n2c(/C=C/c3cccnc3)nc3ccccc3c2=O)c1 [B02-3b]	retain the inhibitory effect	do not inhibit	
Cc1ccc(-n2c(C=Cc3cccnc3)nc3ccccc3c2=O)cc1 [B02-3c]	eliminates the inhibition		
O=c1c2ccccc2nc(C=Cc2cccnc2)n1-c1ccccc1 [B02-3d]	eliminates the inhibition		
Cn1c(C=Cc2cccnc2)nc2ccccc2c1=O [B02-3e]	eliminates the inhibition		
O=c1c2ccccc2nc(/C=C/c2cccnc2)n1Cc1ccccc1 [B02]			IC50 (RecA; read-out: IC50 for RecA, D-loop assay, RecA 1 μM): > 250 µM; inhibition of RecA DNA strand exchange (RecA; up to 250 μM of compound): did not observe any significant inhibition; inhibition of RAD54 branch migration activity (human RAD54): did not significantly inhibit
